In ChEMBL document CHEMBL1201862, “PubChem BioAssay data set” (2004):
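Growth conditions: 96-well plates. Treatment: test compound, 48 hours, 5 concentrations. Analysis: linear interpolation between bracketing concentrations; unreached endpoints set to highest concentration. Here, GI50 denotes the concentration required for 50% inhibition of growth.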 Calls of active or inactive are those of the source. Rule as the data show it: active = GI50 up to about 1.1 µM and inactive = higher.

What was measured:
Experiment in all cases: NCI-60 cell line screen, 48 h
[1] = system: BT-549
[2] = system: CAKI-1
[3] = system: Hs-578T
[4] = system: MDA-N
[5] = system: SF-295
[6] = system: NCI-H23
[7] = system: RPMI-8226
[8] = system: IGROV-1
[9] = system: NCI-H226
[10] = system: 786-0
[11] = system: TK-10
[12] = system: MOLT-4
[13] = system: MDA-MB-231
[14] = system: UACC-257
[15] = system: SNB-19
[16] = system: PC-3
[17] = system: COLO 205
[18] = system: SW-620
[19] = system: ACHN
[20] = system: SR
[21] = system: NCI/ADR-RES
[22] = system: HCT-15
[23] = system: EKVX
[24] = system: SF-268
[25] = system: HOP-62
[26] = system: HCC 2998
[27] = system: KM12
[28] = system: A498
[29] = system: NCI-H460
[30] = system: M14
[31] = system: NCI-H522
[32] = system: Malme-3M
[33] = system: SK-MEL-2
[34] = system: HCT-116
[35] = system: MDA-MB-435
[36] = system: SN12C
[37] = system: HT-29
[38] = system: U-251
[39] = system: DU-145
[40] = system: K562
[41] = system: OVCAR-8
[42] = system: OVCAR-5
[43] = system: HOP-92
[44] = system: SK-MEL-5
[45] = system: CCRF-CEM
[46] = system: UO-31
[47] = system: RXF 393
[48] = system: OVCAR-3
[49] = system: OVCAR-4
[50] = system: MCF7
[51] = system: LOX IMVI
[52] = system: T47D
[53] = system: UACC-62
[54] = system: SK-MEL-28
[55] = system: SK-OV-3
[56] = system: A549
[57] = system: SNB-75
[58] = system: HL-60
[59] = system: SF-539

With `COc1cccc(/N=N/C(=N/NC(=O)c2ccc(C)cc2)c2ccc(N(CCC#N)CCC#N)cc2OC)c1` the GI50 [1] was > 100 µM (inactive), the GI50 [2] was > 100 µM (inactive) and the GI50 [3] was > 100 µM (inactive). For the same compound, the GI50 [4] was > 100 µM (inactive), the GI50 [5] was 59 µM (inactive) and the GI50 [6] was > 100 µM (inactive). For the same compound, the GI50 [7] was > 100 µM (inactive), the GI50 [8] was > 100 µM (inactive) and the GI50 [9] was > 100 µM (inactive). For the same compound, the GI50 [10] was > 100 µM (inactive), the GI50 [11] was 8.05 µM (inactive) and the GI50 [12] was > 100 µM (inactive). The GI50 [13] was > 100 µM (inactive), the GI50 [14] was 7.14 µM (inactive) and the GI50 [15] was > 100 µM (inactive). The GI50 [16] was > 100 µM (inactive), the GI50 [17] was > 100 µM (inactive) and the GI50 [18] was > 100 µM (inactive). The GI50 [19] was > 100 µM (inactive), the GI50 [20] was > 100 µM (inactive) and the GI50 [21] was > 100 µM (inactive). For the same compound, the GI50 [22] was > 100 µM, the GI50 [23] was 22.9 µM (inactive) and the GI50 [24] was > 100 µM (inactive). For the same compound, the GI50 [25] was > 100 µM (inactive), the GI50 [26] was 8.28 µM (inactive) and the GI50 [27] was > 100 µM (inactive). For the same compound, the GI50 [28] was > 100 µM (inactive), the GI50 [29] was 3.76 µM (inactive) and the GI50 [30] was > 100 µM (inactive). The GI50 [31] was > 100 µM (inactive), the GI50 [32] was > 100 µM (inactive) and the GI50 [33] was > 100 µM (inactive). The GI50 [34] was > 100 µM (inactive), the GI50 [35] was > 100 µM (inactive) and the GI50 [36] was > 100 µM (inactive). The GI50 [37] was 21.2 µM (inactive), the GI50 [38] was > 100 µM (inactive) and the GI50 [39] was > 100 µM (inactive). The GI50 [40] was > 100 µM (inactive), the GI50 [41] was > 100 µM (inactive) and the GI50 [42] was 24.4 µM (inactive). The GI50 [43] was > 100 µM (inactive), the GI50 [44] was > 100 µM (inactive) and the GI50 [45] was > 100 µM (inactive). The GI50 [46] was > 100 µM (inactive), the GI50 [47] was > 100 µM (inactive) and the GI50 [48] was > 100 µM (inactive). For the same compound, the GI50 [49] was > 100 µM (inactive), the GI50 [50] was > 100 µM (inactive) and the GI50 [51] was > 100 µM (inactive). For the same compound, the GI50 [52] was > 100 µM (inactive), the GI50 [53] was > 100 µM (inactive) and the GI50 [54] was > 100 µM (inactive). For the same compound, the GI50 [55] was > 100 µM (inactive) and the GI50 [56] was > 100 µM (inactive).

With `Cc1nc2ccc(NC3OCC(O)C(O)C3O)cc2c(=O)n1-c1ccccc1` (centres undefined) the GI50 [1] was > 100 µM (inactive), the GI50 [2] was > 100 µM (inactive) and the GI50 [3] was > 100 µM (inactive). The GI50 [4] was > 100 µM (inactive), the GI50 [5] was > 100 µM (inactive) and the GI50 [6] was > 100 µM (inactive). For the same compound, the GI50 [7] was > 100 µM (inactive), the GI50 [8] was > 100 µM (inactive) and the GI50 [9] was > 100 µM (inactive). The GI50 [10] was > 100 µM (inactive), the GI50 [11] was > 100 µM (inactive) and the GI50 [12] was > 100 µM (inactive). The GI50 [13] was > 100 µM (inactive), the GI50 [14] was > 100 µM (inactive) and the GI50 [15] was > 100 µM (inactive). The GI50 [16] was > 100 µM (inactive), the GI50 [57] was > 100 µM (inactive) and the GI50 [17] was > 100 µM (inactive). The GI50 [18] was > 100 µM (inactive), the GI50 [19] was > 100 µM (inactive) and the GI50 [20] was > 100 µM (inactive). For the same compound, the GI50 [21] was > 100 µM (inactive), the GI50 [22] was > 100 µM and the GI50 [23] was > 100 µM (inactive). For the same compound, the GI50 [24] was > 100 µM (inactive), the GI50 [25] was > 100 µM (inactive) and the GI50 [26] was > 100 µM (inactive). The GI50 [27] was > 100 µM (inactive), the GI50 [28] was > 100 µM (inactive) and the GI50 [29] was > 100 µM (inactive). For the same compound, the GI50 [31] was > 100 µM (inactive), the GI50 [32] was > 100 µM (inactive) and the GI50 [33] was > 100 µM (inactive). The GI50 [34] was > 100 µM (inactive), the GI50 [35] was > 100 µM (inactive) and the GI50 [36] was > 100 µM (inactive). The GI50 [37] was > 100 µM (inactive), the GI50 [38] was > 100 µM (inactive) and the GI50 [39] was > 100 µM (inactive). The GI50 [40] was > 100 µM (inactive), the GI50 [58] was 49.7 µM (inactive) and the GI50 [41] was > 100 µM (inactive). For the same compound, the GI50 [42] was > 100 µM (inactive), the GI50 [44] was > 100 µM (inactive) and the GI50 [46] was > 100 µM (inactive). For the same compound, the GI50 [47] was > 100 µM (inactive), the GI50 [48] was > 100 µM (inactive) and the GI50 [49] was > 100 µM (inactive). The GI50 [50] was > 100 µM (inactive), the GI50 [51] was > 100 µM (inactive) and the GI50 [52] was > 100 µM (inactive). The GI50 [53] was > 100 µM (inactive) and the GI50 [54] was > 100 µM (inactive).

`COc1nc(C#CC2(O)CCCCC2)nc(OC)n1` was tested, and the GI50 [1] was 14.5 µM (inactive), the GI50 [2] was 4.19 µM (inactive) and the GI50 [3] was 11.5 µM (inactive). For the same compound, the GI50 [4] was 10.9 µM (inactive), the GI50 [5] was 18 µM (inactive) and the GI50 [6] was 13.7 µM (inactive). For the same compound, the GI50 [7] was 2.88 µM (inactive), the GI50 [8] was 11.1 µM (inactive) and the GI50 [59] was 9.16 µM (inactive). For the same compound, the GI50 [10] was 22.9 µM (inactive), the GI50 [12] was 3.53 µM (inactive) and the GI50 [13] was 3.34 µM (inactive). For the same compound, the GI50 [14] was 14.6 µM (inactive), the GI50 [15] was 38.7 µM (inactive) and the GI50 [16] was 5.62 µM (inactive). For the same compound, the GI50 [57] was 19.4 µM (inactive), the GI50 [17] was 14.7 µM (inactive) and the GI50 [18] was 8.91 µM (inactive). The GI50 [19] was 8.49 µM (inactive), the GI50 [20] was 3.47 µM (inactive) and the GI50 [21] was 23.6 µM (inactive). The GI50 [22] was 2.69 µM, the GI50 [23] was 18.1 µM (inactive) and the GI50 [24] was 14.3 µM (inactive). For the same compound, the GI50 [25] was 34.2 µM (inactive), the GI50 [27] was 15.8 µM (inactive) and the GI50 [28] was 17.3 µM (inactive). For the same compound, the GI50 [29] was 24.3 µM (inactive), the GI50 [30] was 8.65 µM (inactive) and the GI50 [31] was 10 µM (inactive). For the same compound, the GI50 [32] was 3.1 µM (inactive), the GI50 [33] was 14 µM (inactive) and the GI50 [34] was 9.4 µM (inactive). For the same compound, the GI50 [35] was 5.82 µM (inactive), the GI50 [36] was 12.4 µM (inactive) and the GI50 [37] was 11.7 µM (inactive). The GI50 [38] was 12.4 µM (inactive), the GI50 [39] was 6.79 µM (inactive) and the GI50 [40] was 6.49 µM (inactive). The GI50 [58] was 2.64 µM (inactive), the GI50 [41] was 13 µM (inactive) and the GI50 [42] was 12.7 µM (inactive). For the same compound, the GI50 [44] was 7.43 µM (inactive), the GI50 [45] was 12.3 µM (inactive) and the GI50 [46] was 3.82 µM (inactive). For the same compound, the GI50 [47] was 12.9 µM (inactive), the GI50 [48] was 8.15 µM (inactive) and the GI50 [49] was 1.87 µM (inactive). The GI50 [50] was 4.28 µM (inactive), the GI50 [51] was 2.83 µM (inactive) and the GI50 [52] was 30.5 µM (inactive). The GI50 [53] was 6.55 µM (inactive), the GI50 [54] was 13.9 µM (inactive) and the GI50 [55] was 53.6 µM (inactive). For the same compound, the GI50 [56] was 13.9 µM (inactive).
